Results from PMC10052957, “Exploring Synthetic Dihydrobenzofuran and Benzofuran Neolignans as Antiprotozoal Agents against Trypanosoma cruzi” (Pharmaceutics, 2023).
Converted amounts (≈) assume the structure as drawn. Like-named read-outs stand apart in the source and are kept apart here.

Columns and labels:
[1] = test system: epimastigote forms of the T. cruzi Y strain; design: method as in PMID 17015964; conditions: cited from earlier work
[2] = test system: amastigotes forms of the T. cruzi Y strain; experiment: In vitro antitrypanosomal activity against amastigotes of moderately drug-resistant T. cruzi Y strain (Giemsa counting in LLC-MK2 cells); type: cell-based, Trypanosoma cruzi; conditions: for IC50: Trypanosoma cruzi, LLC-MK2, amastigotes, after 72 h, 95% confidence limits in parentheses; for SI Y Strain: CC50 of LLC-MK2 divided by IC50 at 72 h
[3] = Cytotoxicity in murine spleen cells (propidium iodide, flow cytometry); type: cell-based, Swiss mice (Mus musculus); conditions: Swiss, mouse, 95% confidence limits in parentheses
Description: The cytotoxicity of DBNs 1–4 was determined using the propidium iodide and trypan blue methodologies. To assess the cytotoxic activity using propidium iodide, mice spleen cells were sown at a concentration of 6.5 × 10^6 cells/mL in a 24-well plate. DBNs 1, 2, 3, 4, and BZN were added at concentrations ranging from 1.95 to 250 µM and incubated for 24 h at 37 °C in a 5% CO2 humidified incubator (Sanyo). After the incubation period, the cells were harvested and incubated with a 10 µg/mL propidium iodide solution (Sigma-Aldrich, St. Louis, MO, USA). The cell acquisition was performed within 15 min using a flow cytometer (BD-FACSCanto™II; BD Biosciences, BR), and cell counting was used to obtain the CC50 (50% cytotoxic concentration).

[4] = Cytotoxicity in LLC-MK2 cells (trypan blue); type: cell-based, Monkey (Macaca mulata); conditions: rhesus monkey (Macaca mulatta), 95% confidence limits in parentheses
Description: To assess the cytotoxic activity of DBNs 1–4 using trypan blue, LLC-MK2 cells were sown at a concentration of 2 × 10^5 cells per well in 96-well plates. DBNs 1, 2, 3, 4, and BZN previously dissolved with DMSO were added to achieve the concentration range of 6.25-100 µM and incubated at 37 °C in a 5% CO2 humidified incubator (Sanyo) for 72 h. Next, the cells were trypsinized for 30 s, and then 10 μL of the supernatant was stained with 10 μL of a 0.4% trypan blue solution (Synth, São Paulo, Brazil). Cell counting was performed using transmitted light microscopy (Nikon) with 40X magnification using a Neubauer’s chamber (Global Glass), with a total of 100 cells being counted, where cellsstained blue were considered non-viable. Cell counting was used to obtain the CC50.

[5] = test system: Erythrocytes; experiment: Hemolytic activity on defibrinated sheep blood; type: cell-based; conditions: sheep red blood cells, 30 min, 37 °C
Description: The hemolytic activity was determined as described by Kaplum and co-workers with adaptations. Defibrinated sheep blood was diluted in 0.9% saline solution. Neolignans 1, 2, 3, 4, and BZN were solubilized in DMSO (Sigma-Aldrich, St. Louis, MO, USA) and added to microtubes containing red blood cells in concentrations from 6.25 to 100 µM. […] Distilled water was used as a positive control, and a 0.9% saline solution with 0.1% DMSO was used as the negative control.

[6] = test system: 60 humor tumor cell lines; design: method as in PMID 10639289; conditions: molar drug concentration required for 50% growth inhibition; cited from earlier work
[7] = test system: chloroquine-resistant Plasmodium falciparum (strain K1); design: method as in PMID 15653333; conditions: cited from earlier work
[8] = test system: Leishmania donovani axenic amastigotes; design: method as in PMID 15653333; conditions: cited from earlier work
[9] = test system: Leishmania donovani infected macrophage; design: method as in PMID 15653333; conditions: cited from earlier work
[10] = test system: trypomastigote forms of Trypanosoma brucei rhodiense; design: method as in PMID 15653333; conditions: cited from earlier work
[11] = test system: trypomastigote forms of the T. cruzi Y strain; design: method as in PMID 21570099; conditions: cited from earlier work
[12] = test system: epimastigote forms of the T. cruzi H6 strain; design: method as in PMID 12230115; conditions: cited from earlier work
[13] = value in parentheses, read-out: IC50

C/C=C/c1ccc2oc(-c3ccc(O)cc3)c(C)c2c1 [eupomatenoid-6]
IC50 [1]: 7.5 µg/mL
IC50 [1, 13]: 28.4 µM

COC(=O)C=Cc1cc(O)c2c(c1)C(C(=O)OC)C(c1ccc(O)c(O)c1)O2 (stereo not drawn) [Compound 3]
IC50 [2]: > 25 µM
CC50 at 24 h [3]: < 1.95 µM
CC50 at 72 h [4]: 30.8 µM
CH50 Erythrocytes [5]: >100 µM
GI50 [6]: 0.3 µM

COC(=O)C=Cc1cc(OC)c2c(c1)C(C(=O)OC)C(c1ccc(O)c(OC)c1)O2 (stereo not drawn) [Compound 2]
IC50 [2]: > 25 µM
CC50 at 24 h [3]: 34.2 µM
CC50 at 72 h [4]: 67.6 µM
CH50 Erythrocytes [5]: >100 µM

CCCCOC(=O)C=Cc1cc(O)c2c(c1)C(C(=O)OCCCC)C(c1ccc(O)c(O)c1)O2 (stereo not drawn)
IC50 [7]: 0.43 µg/mL (≈ 0.914 µM)
IC50 [8]: 0.12 µg/mL (≈ 0.255 µM)
IC50 [9]: 0.19 µg/mL (≈ 0.404 µM)
IC50 [10]: 0.29 µg/mL (≈ 0.616 µM)

O=C(Cn1ccnc1[N+](=O)[O-])NCc1ccccc1 [BZN, benznidazole, reference compound]
SI Y Strain [2]: 12.13
IC50 [2]: 3.56 µM
CC50 at 24 h [3]: 1.81 µM
CC50 at 72 h [4]: 43.2 µM

OCCCc1ccc2c(c1)C(CO)C(c1ccc(O)cc1)O2 (stereo not drawn) [Compound 14]
melting point: 120 to 121 °C

COC(=O)C=Cc1ccc2c(c1)C(C(=O)OC)C(c1ccc(OC(C)=O)cc1)O2 (stereo not drawn) [Compound 4]
IC50 [2]: > 25 µM
CC50 at 24 h [3]: 51.1 µM
CC50 at 72 h [4]: 67.5 µM
CH50 Erythrocytes [5]: >100 µM
melting point: 103 to 105 °C

COC(=O)C=Cc1ccc2c(c1)C(C(=O)OC)C(c1ccc(O)cc1)O2 (mixture of isomers) [Compound 1, (±)-trans-dehydrodicoumarate dimethyl ester]
SI Y Strain [2]: 21.73
IC50 [2]: 3.26 µM
CC50 at 24 h [3]: 49.9 µM
CC50 at 72 h [4]: 70.9 µM
CH50 Erythrocytes [5]: >100 µM

C/C=C/c1cc(OC)c2c(c1)[C@H](C)[C@@H](c1ccc(O)c(OC)c1)O2 [(-)-licarin]
IC50 [11]: 23.5 µM

OCC=Cc1ccc2c(c1)C(CO)C(c1ccc(O)cc1)O2 (stereo not drawn) [Compound 9]
melting point: 139 to 140 °C

C/C=C/c1cc(OC)c2c(c1)[C@@H](C)[C@H](c1ccc(O)c(OC)c1)O2 [(+)-licarin]
IC50 [11]: 87.7 µM

COC(=O)C=Cc1cc(OC)c2c(c1)C(C(=O)OC)C(c1ccc(OC(=O)c3ccccc3)c(OC)c1)O2 (stereo not drawn) [Compound 11]
melting point: 109 to 111 °C

C/C=C/c1cc(OC)c2c(c1)[C@H](C)[C@@H](c1ccc(O)c(OC)c1)O2 [licarin A]
IC50 [12]: 123 µM

C/C=C/c1ccc2c(c1)[C@@H](C)[C@H](c1ccc(O)cc1)O2 [conocarpan]
IC50 [1]: 8.0 µg/mL
IC50 [1, 13]: 30 µM

eupomatenoid-5
IC50 [1]: 7.0 µg/mL
IC50 [1, 13]: 23.8 µM

C/C=C/c1cc(OC)c2oc(-c3ccc(O)c(OC)c3)c(C)c2c1 [eupomatenoid-7]
IC50 [12]: 77 µM

Eupatemoid-3
IC50 [1]: 26.3 µg/mL
IC50 [1, 13]: 90.9 µM

(±)-licarin
IC50 [11]: 127 µM

COC(=O)/C=C/c1ccc2oc(-c3ccc(O)cc3)c(C(=O)OC)c2c1 [Compound 7]
melting point: 204 to 206 °C

COC(=O)CCc1ccc2c(c1)C(C(=O)OC)C(c1ccc(O)cc1)O2 (stereo not drawn) [Compound 12]
melting point: 108 to 110 °C
